Data on five compounds can be found in ChEMBL document CHEMBL3638843, “Urokinase inhibitors, production and use thereof” (2013).

For one assay, the target named is Serine protease 1 (Rattus norvegicus, UniProt P00762). Nature of the assay: Enzyme Assay: Inhibition constant of the compound against Trypsin.
In a further assay the target is Prothrombin (Rattus norvegicus, UniProt P18292). Kind of assay: Enzyme Assay: Inhibition constant of the compound against Thrombin.
A further assay addresses Plasminogen (Rattus norvegicus, UniProt Q01177). Kind of assay: Enzyme Assay: Inhibition constant of the compound against Plasmin.

The structures appear in SMILES notation. pKi: −log10 of the molar value.

Sequence of Serine protease 1 (P00762 whole entry): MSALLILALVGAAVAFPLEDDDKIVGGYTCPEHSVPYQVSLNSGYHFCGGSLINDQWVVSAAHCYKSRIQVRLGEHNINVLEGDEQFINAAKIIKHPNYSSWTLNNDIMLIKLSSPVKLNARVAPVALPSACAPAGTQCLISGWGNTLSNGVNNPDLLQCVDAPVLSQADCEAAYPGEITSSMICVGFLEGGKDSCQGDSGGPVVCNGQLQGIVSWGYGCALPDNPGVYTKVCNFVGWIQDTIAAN
Sequence of Plasminogen (Q01177 97-581 limits assumed): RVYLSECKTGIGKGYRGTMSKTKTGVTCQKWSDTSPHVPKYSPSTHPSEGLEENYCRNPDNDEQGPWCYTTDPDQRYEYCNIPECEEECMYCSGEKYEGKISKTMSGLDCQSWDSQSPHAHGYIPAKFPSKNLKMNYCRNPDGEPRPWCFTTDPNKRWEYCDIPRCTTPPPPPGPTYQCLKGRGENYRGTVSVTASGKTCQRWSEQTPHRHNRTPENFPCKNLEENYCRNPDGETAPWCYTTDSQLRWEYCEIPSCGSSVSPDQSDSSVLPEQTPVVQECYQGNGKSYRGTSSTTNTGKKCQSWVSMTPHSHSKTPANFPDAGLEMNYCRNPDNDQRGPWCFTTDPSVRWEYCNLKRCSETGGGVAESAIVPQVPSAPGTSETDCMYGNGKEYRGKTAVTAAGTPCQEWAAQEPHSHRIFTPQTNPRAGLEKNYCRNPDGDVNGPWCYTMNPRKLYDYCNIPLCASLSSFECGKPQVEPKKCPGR
Sequence of Plasminogen (Q01177 582-812 limits assumed): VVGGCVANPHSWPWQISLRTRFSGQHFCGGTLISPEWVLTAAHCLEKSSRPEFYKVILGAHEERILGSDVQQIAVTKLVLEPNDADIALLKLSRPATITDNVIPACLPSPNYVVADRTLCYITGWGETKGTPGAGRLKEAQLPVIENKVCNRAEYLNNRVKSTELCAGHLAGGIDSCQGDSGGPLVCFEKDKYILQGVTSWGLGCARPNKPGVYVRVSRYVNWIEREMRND

The term pKi denotes the negative decadic logarithm of the Ki, by convention in mol/L. A higher pKi goes with a low Ki. At Serine protease 1, `N=C(N)c1ccc(CNC(=O)CNC(=O)[C@@H](CO)NS(=O)(=O)Cc2cccc(C(=O)O)c2)cc1` had a pKi of 6.14.
The same measure, in the same setting: the figure for `N=C(N)c1ccc(CNC(=O)CNC(=O)[C@@H](CO)NS(=O)(=O)Cc2ccc(CN)cc2)cc1` is 6.55.
Turning to `N=C(N)c1ccc(CNC(=O)CNC(=O)[C@@H](CO)NS(=O)(=O)Cc2ccncc2)cc1`, the pKi at Prothrombin was 5.80; on Serine protease 1, 6.39; on Plasminogen it was 4.43.
As to `N=C(N)c1ccc(CNC(=O)[C@H](CCCCN)NC(=O)[C@@H](CO)NS(=O)(=O)Cc2ccccc2)cc1`, at Serine protease 1, the pKi is 8.17.
The same measure, in the same setting: the figure for `N=C(N)c1ccc(CNC(=O)[C@H](CCCN=C(N)N)NC(=O)[C@@H](CO)NS(=O)(=O)Cc2ccccc2)cc1` is 8.15.
